Reference: patent US20230146233A1, “A CLASS OF POLYCYCLIC COMPOUNDS INHIBITING RNA HELICASE DHX33 AND THE APPLICATION THEREOF” (Shenzhen KeYe Life Technologies, Co., Ltd, priority 2020, published 2023)

tested on: U251-MG cells; experiment: Half-maximal cell-inhibitory concentration on U251-MG cells (CCK-8); format: cell-based; settings: Homo sapiens, U-251, U251-MG cells (DHX33-overexpressing cancer cell strain), 48 hours, read-out: IC50 (half-maximal inhibitory concentrations of compounds on U251-MG cells)
Description: U251-MG cells were purchased from the cell bank of the Chinese Academy of Sciences. Cells were cultured in MEM medium containing 10% fetal bovine serum (FBS), 2 mM L-glutammie, streptomycmn and penicillin. The growth conditions were set as follows: a humidified cell incubator (37° C., 5% CO2). Cells were passaged every 3 days and were discarded after 10 passages.
U251-MG cells (a […]-overexpressing cancer cell strain) were seeded on a 96-well plate at 1×10^4 cells/100 μl/well. After the cells were completely attached, the compounds were added to the cell culture medium at a concentration of 5 nM, 10 nM, 25 nM, 50 nM, 100 nM, […], 500 nM, 1000 nM, 2000 nM, […] or 20 μM, and the resulting mixture was uniformly mixed with a multichannel pipette. After the cells were incubated with the compound for 48 hours, CCK-8 reagent (Yeasen Biotechnology (Shanghai) Co., Ltd.) was added to the medium in the 96-well plate in accordance with the standard procedure. After being incubated for 2 hours, the plate was read with a microplate reader (OD=450 nm). The experiment was repeated three times, the inhibition curve of the compound at different concentrations was plotted, and the half-maximal inhibitory concentration (IC50) of the compound was calculated.

Row | Compound | IC50
1 | COc1cc2cc(/C(C#N)=C/c3cc(C)n(-c4sc(C)cc4C#N)c3C)[nH]c2cn1 [AB24342, (Z)-2-(3-(2-cyano-2-(5-methoxy-1H-pyrrolo[2,3-c]pyridin-2-yl)vinyl)-2,5-dimethyl-1H-pyrrol-1-yl)-5-methylthiophene-3-carbonitrile] | 100 to 1000 nM
2 | COc1cc2nc(/C(C#N)=C/c3cc(C)n(-c4sc(C)nc4C#N)c3C)[nH]c2cn1 [AB24348, (E)-5-(3-(2-cyano-2-(6-methoxy-3H-imidazo[4,5-c]pyridin-2-yl)vinyl)-2,5-dimethyl-1H-pyrrol-1-yl)-2-methylthiazole-4-carbonitrile] | < 100 nM
3 | Cc1cc(C#N)c(-n2c(C)cc(/C=C(\C#N)c3nc4cc(N(C)C)ncc4[nH]3)c2C)s1 [AB24355, (E)-2-(3-(2-cyano-2-(6-(dimethylamino)-3H-imidazo[4,5-c]pyridin-2-yl)vinyl)-2,5-dimethyl-1H-pyrrol-1-yl)-5-methylthiophene-3-carbonitrile] | < 100 nM
4 | COc1ccc2[nH]c3cc(-c4cc(C)n(-c5sc(C)cc5C#N)c4C)ccc3c2c1 [AB24375, 2-(3-(6-methoxy-9H-carbazol-2-yl)-2,5-dimethyl-1H-pyrrol-1-yl)-5-methylthiophene-3-carbonitrile] | 5000 to 20000 nM
5 | COc1ccc2nc3cc(-c4cc(C)n(-c5sc(C)cc5C#N)c4C)ccc3n2c1 [AB24385, 2-(3-(2-methoxybenzo[4,5]imidazo[1,2-a]pyridin-7-yl)-2,5-dimethyl-1H-pyrrol-1-yl)-5-methylthiophene-3-carbonitrile] | 1000 to 5000 nM
6 | COc1cc2nc(NC(=O)c3cc(C)n(-c4sc(C)nc4C#N)c3C)[nH]c2cn1 [AB29502, 1-(4-cyano-2-methylthiazol-5-yl)-N-(6-methoxy-3H-imidazo[4,5-c]pyridin-2-yl)-2,5-dimethyl-1H-pyrrole-3-carboxamide] | 100 to 1000 nM
7 | COc1cc2nc(/C(C#N)=C/c3cc(C)n(Cc4ccccn4)c3C)[nH]c2cn1 [AB29507, (E)-3-(2,5-dimethyl-1-(pyridin-2-ylmethyl)-1H-pyrrol-3-yl)-2-(6-methoxy-3H-imidazo[4,5-c]pyridin-2-yl)acrylonitrile] | < 100 nM
8 | COc1cc2nc(/C(C#N)=C/c3cc(C)n(Cc4cnccn4)c3C)[nH]c2cn1 [AB29508, (E)-3-(2,5-dimethyl-1-(pyrazin-2-ylmethyl)-1H-pyrrol-3-yl)-2-(6-methoxy-3H-imidazo[4,5-c]pyridin-2-yl)acrylonitrile] | < 100 nM
9 | COc1ccc2nc(NC(=O)c3cc(C)n(-c4sc(C)nc4C#N)c3C)[nH]c2c1 [AB29509, 1-(4-cyano-2-methylthiazol-5-yl)-N-(6-methoxy-1H-benzo[d]imidazol-2-yl)-2,5-dimethyl-1H-pyrrole-3-carboxamide] | 100 to 1000 nM
10 | COc1cc2nc(/C(C#N)=C/c3cc(C)n(Cc4ccncc4)c3C)[nH]c2cn1 [AB29512, (E)-3-(2,5-dimethyl-1-(pyridin-4-ylmethyl)-1H-pyrrol-3-yl)-2-(6-methoxy-3H-imidazo[4,5-c]pyridin-2-yl)acrylonitrile] | < 100 nM
11 | COc1ccc2nc(NC(=O)c3cc(C)n(Cc4cnn(C)c4)c3C)[nH]c2c1 [AB29513, N-(6-methoxy-1H-benzo[d]imidazol-2-yl)-2,5-dimethyl-1-((1-methyl-1H-pyrazol-4-yl)methyl)-1H-pyrrole-3-carboxamide] | 5000 to 20000 nM
12 | COC(=O)c1cc(Cl)sc1-n1c(C)cc(/C=C(\C#N)c2nc3cc(OC)ncc3[nH]2)c1C [AR24318] | 100 to 1000 nM

Now from value to compound:

Row | IC50 | Compound
13 | < 100 nM | Cc1cc(C#N)c(-n2c(C)cc(/C=C(\C#N)c3nc4cc(Cl)ncc4[nH]3)c2C)s1 [AB24341, (E)-2-(3-(2-(6-chloro-3H-imidazo[4,5-c]pyridin-2-yl)-2-cyanovinyl)-2,5-dimethyl-1H-pyrrol-1-yl)-5-methylthiophene-3-carbonitrile]
14 | 100 to 1000 nM | COC(=O)c1nc(C)sc1-n1c(C)cc(/C=C(\C#N)c2nc3cc(OC)ncc3[nH]2)c1C [AB24345]
15 | 100 to 1000 nM | COc1cc2nc(/C(C#N)=C(\C)c3cc(C)n(-c4sc(C)cc4C#N)c3C)[nH]c2cn1 [AB24347, (E)-2-(3-(1-cyano-1-(6-methoxy-3H-imidazo[4,5-c]pyridin-2-yl)prop-1-en-2-yl)-2,5-dimethyl-1H-pyrrol-1-yl)-5-methylthiophene-3-carbonitrile]
16 | < 100 nM | COc1cc2nc(/C(C#N)=C/c3cc(C)n(-c4sc(Cl)cc4C#N)c3C)[nH]c2cn1 [AB24349]
17 | 100 to 1000 nM | COc1cc2nc(/C(C#N)=C/c3cc(C)n(-c4sc(C)cc4C#N)c3C)n(C)c2cn1 [AB24352, (E)-2-(3-(2-cyano-2-(6-methoxy-3-methyl-3H-imidazo[4,5-c]pyridin-2-yl)vinyl)-2,5-dimethyl-1H-pyrrol-1-yl)-5-methylthiophene-3-carbonitrile]
18 | 5000 to 20000 nM | COc1ccc2c(c1)[nH]c1cc(-c3cc(C)n(-c4sc(C)cc4C#N)c3C)c(C)cc12 [AB24374, 2-(3-(7-methoxy-3-methyl-9H-carbazol-2-yl)-2,5-dimethyl-1H-pyrrol-1-yl)-5-methylthiophene-3-carbonitrile]
19 | < 100 nM | COc1cc2nc(/C(C#N)=C/c3cc(C)n(Cc4ccco4)c3C)[nH]c2cn1 [AB24397, (E)-3-(1-(furan-2-ylmethyl)-2,5-dimethyl-1H-pyrrol-3-yl)-2-(6-methoxy-3H-imidazo[4,5-c]pyridin-2-yl)acrylonitrile]
20 | < 100 nM | COc1cc2nc(/C(C#N)=C/c3cc(C)n(Cc4ccccc4)c3C)[nH]c2cn1 [AB24398, (E)-3-(1-benzyl-2,5-dimethyl-1H-pyrrol-3-yl)-2-(6-methoxy-3H-imidazo[4,5-c]pyridin-2-yl)acrylonitrile]
21 | 100 to 1000 nM | COc1ccc2nc(NC(=O)c3cc(C)n(-c4sc(C)nc4C)c3C)[nH]c2c1 [AB29505, 1-(2,4-dimethylthiazol-5-yl)-N-(6-methoxy-1H-benzo[d]imidazol-2-yl)-2,5-dimethyl-1H-pyrrole-3-carboxamide]
22 | 100 to 1000 nM | COc1ccc2nc(NC(=O)c3cc(C)n(-c4oc(C)c(C)c4C#N)c3C)[nH]c2c1 [AB29510, 1-(3-cyano-4,5-dimethylfuran-2-yl)-N-(6-methoxy-1H-benzo[d]imidazol-2-yl)-2,5-dimethyl-1H-pyrrole-3-carboxamide]
